The text below walks through data of the supplement of paper PMC11061612.

Common to all, as to experiment: combination Emax (second highest fraction inhibited in the dose matrix, 72 h); higher = more inhibition; extreme values may be limits of the assay
In assay [1] the test system is COLO-684 (Endometrial Carcinoma). In outline: (§1)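 Cell lines grown in DMEM/F12 or RPMI with 10% FBS were plated in 1536-well plates and held 24 hours at 37°C, 5% CO2 before 72 hours of exposure to two-drug dose matrices, with DMSO typically at 0.2%. CellTiter-Glo 2.0 luminescence gave viability, which was converted to inhibition. Vehicle wells were set to 0 and blank wells to 1. Combination Emax is the second-highest inhibition in the matrix, and Bliss excess is the observed combination effect minus the expected EA + EB − EA·EB, where EA and EB are the single-agent effects.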

Assay [2] has as its system HuO-3N1 (Osteosarcoma). An outline of the steps: as §1
Assay [3] has as its system KYM-1 (Rhabdomyosarcoma). An outline of the steps: as §1
Assay [4] relates to CML-T1 (Chronic Myelogenous Leukemia). An outline of the steps: as §1
Assay [5] deals with PC-14 (Lung Adenocarcinoma). An outline of the steps:
as §1

Assay [6] has as its system OV-90 (Ovarian Carcinoma). In outline:
as §1

Assay [7] concerns OCI-AML5 (Acute Myeloid Leukemia). An outline of the steps: as §1
Assay [8] concerns RT4 (Bladder Carcinoma). In outline:
as §1

Assay [9] deals with FLO-1 (Esophageal Adenocarcinoma). An outline of the steps: as §1
Assay [10] relates to SW684 (Other Solid Carcinomas). In outline: as §1
The test system of assay [11] is NCI-H1623 (Lung Adenocarcinoma). In outline:
as §1

Assay [12] deals with AsPC-1 (Pancreatic Carcinoma). In outline:
as §1

For assay [13], the system named is NCI-H1755 (Lung Adenocarcinoma). In outline:
as §1

In assay [14] the test system is CHL-1 (Melanoma). An outline of the steps: as §1
For assay [15], the system named is SK-MM-2 (Plasma Cell Myeloma). In outline:
as §1

Assay [16] relates to ES-2 (Ovarian Carcinoma). In outline:
as §1

In assay [17] the test system is NCI-H1155 (Non-Small Cell Lung Carcinoma). An outline of the steps: as §1
For assay [18], the system named is HSC-3 (Oral Cavity Carcinoma). An outline of the steps:
as §1

The test system of assay [19] is OVTOKO (Ovarian Carcinoma). An outline of the steps: as §1
Assay [20] deals with NCI-H196 (Small Cell Lung Carcinoma). In outline: as §1

Structures are written as SMILES.

On to `CCN(CCO)CCCOc1ccc2c(Nc3cc(CC(=O)Nc4cccc(F)c4)[nH]n3)ncnc2c1` [AZD2811] + C[C@@H]1COCCN1C2=NC(=NC(=C2)C3(CC3)[S@](=N)(=O)C)C4=C5C=CNC5=NC=C4 [AZD6738] (first compound max 1 µM, 7x7, partner max 10 µM), for which the “combination Emax” value in assay [1] is 0.748; in assay [2], 0.339; in assay [3] it was 0.762; in assay [4], 0.934; in assay [5], 0.83; in [6], 0.429. Also, the “combination Emax” value in assay [7] came out at 0.983; in [8], 0.429; in [9], 0.6; in [10] it was 0.385; in assay [11], 0.6; in assay [12], 0.42. The “combination Emax” value in assay [13] was determined as 0.788; in [14], 0.805; in [15], 0.533; in [16], 0.728; in [17], 0.787; in [18], 0.454. Further, the “combination Emax” value turned out to be 0.37 in [19] and 0.276 in assay [20].

On to `Cc1c2c(nn1C)CSCc1cc(n(C)n1)CSc1cc(c3ccccc3c1)OCCCc1c(C(=O)O)n(C)c3c-2c(Cl)ccc13` [AZD5991] + C[C@@H]1COCCN1C2=NC(=NC(=C2)C3(CC3)[S@](=N)(=O)C)C4=C5C=CNC5=NC=C4 [AZD6738] (first compound max 1 µM, 7x7, partner max 10 µM), for which the “combination Emax” value in [1] is 0.741; in assay [2], 0.894; in [3] it was 0.924; in assay [4], 0.96; in [5], 0.855; in assay [6] it was 0.51. Moreover, the “combination Emax” value in assay [7] was 1; in [8], 0.536; in assay [9], 0.686; in assay [10] it was 0.428; in [11] it was 0.997; in assay [12], 0.292. In addition, the “combination Emax” value in assay [13] was 0.854; in assay [14], 0.906; in [15], 0.637; in assay [16] it was 0.858; in assay [17], 0.849; in assay [18], 0.798. Further, the figures for the “combination Emax” value in [19] and in assay [20] were 0.452 and 0.367, respectively.

On to `C[C@@H]1COCCN1c1cc(C2([S@](C)(=N)=O)CC2)nc(-c2ccnc3[nH]ccc23)n1` [AZD6738] + O=C(c1cc(Cc2n[nH]c(=O)c3ccccc23)ccc1F)N1CCN(C(=O)C2CC2)CC1 [Olaparib] (first compound max 10 µM, 7x7, partner max 10 µM), for which the “combination Emax” value in assay [1] turned out to be 0.685; in assay [2], 0.339; in assay [3], 0.792; in assay [4] it was 0.966; in [5], 0.816; in assay [6] it was 0.537. Besides, the “combination Emax” value in assay [7] was determined as 0.907; in assay [8], 0.443; in assay [9], 0.75; in assay [10], 0.422; in assay [11], 0.693; in [12] it was 0.308. Moreover, the “combination Emax” value in [13] is 0.793; in [14], 0.577; in assay [15] it was 0.572; in assay [16], 0.662; in assay [17], 0.825; in assay [18], 0.404. Further, the “combination Emax” value in assay [19] is 0.398; in [20] it was 0.347.

For the compound `COc1cccc(OCCCN)c1-c1cc(Nc2cnc(C#N)cn2)n[nH]1` [Prexasertib] + C=CCn1c(=O)c2cnc(Nc3ccc(N4CCN(C)CC4)cc3)nc2n1-c1cccc(C(C)(C)O)n1 [AZD1775] (first compound max 1 µM, partner max 1 µM), the “combination Emax” value is 0.856 in assay [1]; 0.756 in [2]; 0.966 in [3]; 0.99 in assay [4]; 0.932 in [5]; 0.628 in [6]. The “combination Emax” value in [7] amounted to 1; in [8], 0.742; in [9] it was 0.94; in assay [10], 0.598; in assay [11], 0.841; in [12] it was 0.41. In addition, the “combination Emax” value in assay [13] turned out to be 0.926; in [14], 0.845; in [15], 0.723; in assay [16] it was 0.844; in assay [17] it was 0.963; in assay [18], 0.847. For the same compound, the entries for the “combination Emax” value in assay [19] and in [20] were 0.606 and 0.723, respectively.

Consider `Cc1c2c(nn1C)CSCc1cc(n(C)n1)CSc1cc(c3ccccc3c1)OCCCc1c(C(=O)O)n(C)c3c-2c(Cl)ccc13` [AZD5991] + CC1(C)CCC(CN2CCN(c3ccc(C(=O)NS(=O)(=O)c4ccc(NCC5CCOCC5)c([N+](=O)[O-])c4)c(Oc4cnc5[nH]ccc5c4)c3)CC2)=C(c2ccc(Cl)cc2)C1 [Venetoclax] (first compound max 1 µM, 7x7, partner max 1 µM), for which the “combination Emax” value came to 0.244 in assay [1]; 0.733 in [2]; 0.592 in assay [3]; 0.779 in assay [4]; 0.245 in assay [5]; 0.246 in [6]. Besides, the “combination Emax” value in assay [7] stood at 1; in assay [8], 0.959; in assay [9] it was 0.382; in assay [10] it was 0.174; in [11], 0.905; in [12], 0.12. Moreover, the “combination Emax” value in assay [13] turned out to be 0.212; in assay [14], 0.968; in [15], 1; in assay [16], 0.241; in [17], 0.379; in assay [18], 0.466. For the same compound, the “combination Emax” value turned out to be 0.198 in assay [19] and 0.23 in [20].

Consider `COc1cc2c(cc1OCCCCCOc1cc3c(cc1OC)C(=O)N1C=C(C)C[C@H]1C=N3)N=C[C@@H]1CC(C)=CN1C2=O` [SG3199] + O=C(c1cc(Cc2n[nH]c(=O)c3ccccc23)ccc1F)N1CCN(C(=O)C2CC2)CC1 [Olaparib] (first compound max 0.001 µM, 7x7, partner max 10 µM), for which the “combination Emax” value in [1] was determined as 0.0915; in assay [2], 0.219; in [3], 0.169; in assay [4], 0.738; in [5] it was 0.179; in assay [6] it was 0.098. Besides, the “combination Emax” value in assay [7] came out at 0.182; in [8], 0.169; in assay [9], 0.186; in assay [10], 0.0316; in assay [11] it was 0.376; in assay [12], 0.02. Also, the “combination Emax” value was 0.202 in assay [13]; 0.092 in [14]; 0.137 in [15]; 0.165 in assay [16]; 0.263 in assay [17]; 0.157 in assay [18]. For the same compound, the “combination Emax” value in assay [19] worked out at 0.111; in assay [20] it was 0.106.
